Test results taken from ChEMBL document CHEMBL3272039, “Potenial antitumor agents. 28. Deoxyribonucleic acid polyintercalating agents” (J Med Chem, 1978).

Tests used:
Mus musculus [1] = test: (§1) Toxicity in ip dosed BDF1 mouse allografted with mouse P388 cells administered qd for 5 days; type: organism-based; conditions: mouse, in vivo, 120 h
P388 = test: Antitumor activity against mouse P388 cells allografted in ip dosed BDF1 mouse at optimum dose administered qd for 5 days relative to control; type: functional
Bos taurus = species: Bos taurus; test: Displacement of ethidium bromide from calf thymus DNA by spectrofluorometric analysis
[2] = Lipophilic-hydrophilic balance, Rm of the compound by reversed-phase chromatographic analysis; type: physicochemical
Mus musculus [3] = test: Toxicity in ip dosed BDF1 mouse allografted with mouse L1210 cells administered qd for 5 days; type: organism-based; conditions: mouse, in vivo, 120 h
L1210 = test: Antitumor activity against mouse L1210 cells allografted in ip dosed BDF1 mouse at optimum dose administered qd for 5 days relative to control; type: functional
[4] = as §1; type: organism-based; conditions: BDF1, mouse, in vivo
Pseudoalteromonas = test: Induction of bacteriophage PM2 closed circular DNA unwinding assessed as drug per nucleic acid phosphate ratio at equivalence by viscometric analysis

Row | Compound | Activity (Mus musculus [1]) | ILS (P388) | C50 (Bos taurus) | Rm [2] | Activity (Mus musculus [3]) | ILS (L1210) | MTD at 120 h [4] | Ratio (Pseudoalteromonas)
1 | c1ccc2c(NCCCCCNc3c4ccccc4nc4ccccc34)c3ccccc3nc2c1 | 7.5 mg/kg/day | 36% | 0.21 µM | -0.06 | – | – | – | –
2 | c1ccc2c(NCCCCCCNc3c4ccccc4nc4ccccc34)c3ccccc3nc2c1 | 2.5 mg/kg/day | 53% | 0.15 µM | 0.13 | – | – | – | –
3 | c1ccc2c(NCCCCCCCNc3c4ccccc4nc4ccccc34)c3ccccc3nc2c1 | 5 mg/kg/day | 67% | 0.1 µM | 0.27 | – | – | – | –
4 | CS(=O)(=O)Nc1ccc(Nc2c3ccccc3nc3ccccc23)cc1 | 45 mg/kg/day | 223% | 5.9 µM | 0 | 45 mg/kg/day | 107% | – | –
5 | COc1cc(NS(=O)(=O)CCCCCCS(=O)(=O)Nc2ccc(Nc3c4ccccc4nc4ccccc34)c(OC)c2)ccc1Nc1c2ccccc2nc2ccccc12.Cl.O | – | >25% | 0.15 µM | 0.42 | – | – | 270 mg/kg/day | –
6 | Cl.O=S(=O)(CCCCS(=O)(=O)Nc1ccc(Nc2c3ccccc3nc3ccccc23)cc1)Nc1ccc(Nc2c3ccccc3nc3ccccc23)cc1 | – | >25% | 0.053 µM | -0.11 | – | – | > 500 mg/kg/day | –
7 | c1ccc2c(NCCCCCCCCCCNc3c4ccccc4nc4ccccc34)c3ccccc3nc2c1 | 2.5 mg/kg/day | 33% | 0.09 µM | 0.65 | – | – | – | –
8 | Cl.c1ccc(OCCCCOc2ccccc2Nc2c3ccccc3nc3ccccc23)c(Nc2c3ccccc3nc3ccccc23)c1 | – | >25% | 0.8 µM | 0.53 | – | – | > 500 mg/kg/day | –
9 | Cl.O.O=S(=O)(CCCCNc1c2ccccc2nc2ccccc12)Nc1ccc(Nc2c3ccccc3nc3ccccc23)cc1 | – | >25% | 0.09 µM | -0.1 | – | – | 37 mg/kg/day | 0.066
10 | Cl.O.c1ccc(OCCCCCNc2ccnc3ccccc23)c(Nc2c3ccccc3nc3ccccc23)c1 | – | >25% | 1.9 µM | 0.23 | – | – | 17 mg/kg/day | –
11 | c1ccc2c(NCCCCCCCCNc3c4ccccc4nc4ccccc34)c3ccccc3nc2c1 | 2.5 mg/kg/day | 55% | 0.11 µM | 0.44 | – | – | – | –
12 | Cl.O.c1ccc(OCCCCNc2ccnc3ccccc23)c(Nc2c3ccccc3nc3ccccc23)c1 | – | >25% | 2.6 µM | -0.07 | – | – | 20 mg/kg/day | –
13 | COc1cc(NS(=O)(=O)CCCCS(=O)(=O)Nc2ccc(Nc3ccnc4ccccc34)c(OC)c2)ccc1Nc1ccnc2ccccc12.Cl.O | – | >25% | 7.5 µM | -0.28 | – | – | 12 mg/kg/day | 0.15
14 | c1ccc2c(NCCCCCCCCCCCCCCCCNc3c4ccccc4nc4ccccc34)c3ccccc3nc2c1 | – | >25% | 0.23 µM | 0.88 | – | – | – | –
15 | Cl.c1ccc(OCCCCCCOc2ccccc2Nc2c3ccccc3nc3ccccc23)c(Nc2c3ccccc3nc3ccccc23)c1 | – | >25% | 2.1 µM | 0.71 | – | – | > 500 mg/kg/day | –
16 | CCN(CC)CCCC(C)Nc1c2ccc(Cl)cc2nc2ccc(OC)cc12.CS(C)(=O)=O (stereo not given) | – | >25% | 0.51 µM | – | – | – | 90 mg/kg/day | –
17 | Cl.c1ccc(OCCCCCCCCNc2ccnc3ccccc23)c(Nc2c3ccccc3nc3ccccc23)c1 | – | >25% | 0.6 µM | 0.59 | – | – | 31 mg/kg/day | –
18 | Cl.c1ccc(OCCCOc2ccccc2Nc2c3ccccc3nc3ccccc23)c(Nc2c3ccccc3nc3ccccc23)c1 | – | >25% | 0.6 µM | 0.28 | – | – | 50 mg/kg/day | 0.072
19 | c1ccc2c(NCCNc3c4ccccc4nc4ccccc34)c3ccccc3nc2c1 | – | >25% | 0.7 µM | -0.44 | – | – | 5 mg/kg/day | –
20 | Cl.c1ccc(OCCCCCCCOc2ccccc2Nc2c3ccccc3nc3ccccc23)c(Nc2c3ccccc3nc3ccccc23)c1 | – | >25% | 3.8 µM | 0.75 | – | – | > 500 mg/kg/day | –
21 | COc1cc(NS(=O)(=O)CCCS(=O)(=O)Nc2ccc(Nc3c4ccccc4nc4ccccc34)c(OC)c2)ccc1Nc1c2ccccc2nc2ccccc12.CS(=O)(=O)O.O | 50 mg/kg/day | – | – | 0.22 | 50 mg/kg/day | – | – | –
22 | O.c1ccc(OCCCNc2ccnc3ccccc23)c(Nc2c3ccccc3nc3ccccc23)c1 | – | >25% | 2.7 µM | -0.19 | – | – | 50 mg/kg/day | –
23 | Cl.O.O=S(=O)(CCCCCNc1c2ccccc2nc2ccccc12)Nc1ccc(Nc2c3ccccc3nc3ccccc23)cc1 | 250 mg/kg/day | 63% | 0.17 µM | -0.04 | 250 mg/kg/day | 35% | – | –

Row | Compound | Activity (Mus musculus [1]) | ILS (P388) | C50 (Bos taurus) | Rm [2] | Activity (Mus musculus [3]) | ILS (L1210) | MTD at 120 h [4] | Ratio (Pseudoalteromonas)
24 | Cl.O.O=S(=O)(CCCCCS(=O)(=O)Nc1ccc(Nc2c3ccccc3nc3ccccc23)cc1)Nc1ccc(Nc2c3ccccc3nc3ccccc23)cc1 | 210 mg/kg/day | 49% | 0.07 µM | -0.02 | 210 mg/kg/day | 28% | – | –
25 | CCOc1cc(NS(C)(=O)=O)ccc1Nc1c2ccccc2nc2ccccc12 | 60 mg/kg/day | 218% | 19 µM | 0.37 | 60 mg/kg/day | 71% | – | –
26 | Cl.c1ccc(OCCCCOc2ccccc2Nc2ccnc3ccccc23)c(Nc2ccnc3ccccc23)c1 | – | >25% | 9.2 µM | -0.1 | – | – | 25 mg/kg/day | –
27 | CS(=O)(=O)Nc1ccc(Nc2c3ccccc3nc3c(C(N)=O)cccc23)c(OCCCCOc2cc(NS(C)(=O)=O)ccc2Nc2c3ccccc3nc3c(C(N)=O)cccc23)c1.Cl.O | – | >25% | 0.72 µM | -0.87 | – | – | 275 mg/kg/day | –
28 | COc1cc(NS(=O)(=O)CCCCCS(=O)(=O)Nc2ccc(Nc3c4ccccc4nc4ccccc34)c(OC)c2)ccc1Nc1c2ccccc2nc2ccccc12.CS(=O)(=O)O.O | 400 mg/kg/day | 71% | 0.14 µM | 0.35 | 400 mg/kg/day | 36% | – | –
29 | Cl.O.c1ccc(OCCCCCCNc2ccnc3ccccc23)c(Nc2c3ccccc3nc3ccccc23)c1 | – | >25% | 0.99 µM | 0.42 | – | – | 15 mg/kg/day | –
30 | Cl.O=S(=O)(CCCCCCNc1c2ccccc2nc2ccccc12)Nc1ccc(Nc2c3ccccc3nc3ccccc23)cc1 | – | >25% | 0.21 µM | 0.08 | – | – | 150 mg/kg/day | –
31 | c1ccc2c(NCCCCCCCCCCCCNc3c4ccccc4nc4ccccc34)c3ccccc3nc2c1 | – | >25% | 0.11 µM | 0.79 | – | – | 5 mg/kg/day | –
32 | c1ccc2c(NCCCCCCCCCCCCCCNc3c4ccccc4nc4ccccc34)c3ccccc3nc2c1 | – | >25% | 0.14 µM | 0.82 | – | – | – | –
33 | Cl.c1ccc(OCCCCCCCCCOc2ccccc2Nc2c3ccccc3nc3ccccc23)c(Nc2c3ccccc3nc3ccccc23)c1 | – | >25% | 3.3 µM | 0.85 | – | – | > 500 mg/kg/day | –
34 | c1ccc2c(NCCCCNc3c4ccccc4nc4ccccc34)c3ccccc3nc2c1 | – | >25% | 0.3 µM | -0.26 | – | – | 10 mg/kg/day | –
35 | CCN(CC)CCCC(C)Nc1ccnc2cc(Cl)ccc12.Cl (stereo not given) | – | >25% | 11 µM | – | – | – | 40 mg/kg/day | –
36 | Cl.O.O=S(=O)(CCNc1ncnc2ccccc12)Nc1ccc(Nc2c3ccccc3nc3ccccc23)cc1 | 100 mg/kg/day | 100% | 0.67 µM | -0.53 | 50 mg/kg/day | 57% | – | –
37 | CS(=O)(=O)Nc1ccc(Nc2c3ccccc3nc3ccccc23)c(OCCCCOc2cc(NS(C)(=O)=O)ccc2Nc2c3ccccc3nc3ccccc23)c1.Cl | – | >25% | 0.22 µM | 0.01 | – | – | > 500 mg/kg/day | –
38 | Cl.c1ccc(OCCCCCCCCOc2ccccc2Nc2c3ccccc3nc3ccccc23)c(Nc2c3ccccc3nc3ccccc23)c1 | – | >25% | 9 µM | 0.82 | – | – | > 500 mg/kg/day | –
39 | Cl.O.c1ccc(OCCOc2ccccc2Nc2c3ccccc3nc3ccccc23)c(Nc2c3ccccc3nc3ccccc23)c1 | – | >25% | 0.4 µM | 0.17 | – | – | 125 mg/kg/day | –
40 | COc1cc(NS(=O)(=O)CCCCS(=O)(=O)Nc2ccc(Nc3c4ccccc4nc4c(C(N)=O)cccc34)c(OC)c2)ccc1Nc1c2ccccc2nc2c(C(N)=O)cccc12.Cl.O | – | >25% | 0.068 µM | -0.64 | – | – | 11 mg/kg/day | –
41 | Cl.c1ccc(OCCCCCCCCCCOc2ccccc2Nc2c3ccccc3nc3ccccc23)c(Nc2c3ccccc3nc3ccccc23)c1 | – | >25% | 8 µM | 0.92 | – | – | > 500 mg/kg/day | –
42 | Cl.c1ccc(OCCCCCOc2ccccc2Nc2c3ccccc3nc3ccccc23)c(Nc2c3ccccc3nc3ccccc23)c1 | – | >25% | 1.4 µM | 0.6 | – | – | > 500 mg/kg/day | –
43 | Cl.O.c1ccc(OCCCCCCCNc2ccnc3ccccc23)c(Nc2c3ccccc3nc3ccccc23)c1 | – | >25% | 0.71 µM | 0.52 | – | – | 25 mg/kg/day | –
44 | Br.O=S(=O)(CCCNc1ccnc2ccccc12)Nc1ccc(Nc2c3ccccc3nc3ccccc23)cc1 | – | >25% | 0.12 µM | -0.45 | – | – | 375 mg/kg/day | –
45 | Cl.Nc1c2ccccc2nc2ccccc12 [AMINACRINE HYDROCHLORIDE] | – | >25% | 8.1 µM | -0.08 | – | – | 12.5 mg/kg/day | –
